Laboratory results published in the supplement of paper PMC4932681.

Legend:
BT-474 Tam1 [1] = assay: drug sensitivity score (DSS) (DSS (dimensionless)); higher = more sensitive; extreme values may be limits of the assay; details: 4-OH-tamoxifen in medium 1 µM; 72 h
Outline: (§1)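 CellTiter-Glo viability was the readout, taken on a PHERAstar and normalised to vehicle-only and positive controls. It was measured after breast cancer cell lines and their resistant derivatives spent 72 h at 37 °C in 384-well plates containing library drugs at five concentrations spanning a 10 000-fold range, with 1 μM of the selecting drug in the medium of resistant lines. From logistic dose–response fits in the Breeze pipeline came drug sensitivity score, relative IC50 (curve midpoint) and top-dose inhibition.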

BT-474 Tam2 [2] = assay: as above; details: 4-OH-tamoxifen in medium 1 µM; 72 h
Outline: as §1

BT-474 [3] = assay: as above; details: 72 h
Outline: as §1

MCF-7 Tam1 [4] = assay: as above; details: 4-OH-tamoxifen in medium 1 µM; 72 h
Outline: as §1

MCF-7 [5] = assay: as above; details: 72 h
Outline: as §1

T-47D Tam1 [6] = assay: as above; details: 4-OH-tamoxifen in medium 1 µM; 72 h
Outline: as §1

T-47D Tam2 [7] = assay: as above; details: 4-OH-tamoxifen in medium 1 µM; 72 h
Outline: as §1

T-47D [8] = assay: as above; details: 72 h
Outline: as §1

ZR-75-1 Tam1 [9] = assay: as above; details: 4-OH-tamoxifen in medium 1 µM; 72 h
Outline: as §1

ZR-75-1 Tam2 [10] = assay: as above; details: 4-OH-tamoxifen in medium 1 µM; 72 h
Outline: as §1

ZR-75-1 [11] = assay: as above; details: 72 h
Outline: as §1

BT-474 Tam1 [12] = assay: relative IC50 (midpoint of fitted logistic curve, plateau may be below 50% inhibition; CellTiter-Glo viability); higher = less potent; details: 4-OH-tamoxifen in medium 1 µM; 72 h
Outline: as §1

BT-474 Tam2 [13] = assay: as above; details: 4-OH-tamoxifen in medium 1 µM; 72 h
Outline: as §1

BT-474 [14] = assay: as above; details: 72 h
Outline: as §1

MCF-7 Tam1 [15] = assay: as above; details: 4-OH-tamoxifen in medium 1 µM; 72 h
Outline: as §1

MCF-7 [16] = assay: as above; details: 72 h
Outline: as §1

T-47D Tam1 [17] = assay: as above; details: 4-OH-tamoxifen in medium 1 µM; 72 h
Outline: as §1

T-47D Tam2 [18] = assay: as above; details: 4-OH-tamoxifen in medium 1 µM; 72 h
Outline: as §1

T-47D [19] = assay: as above; details: 72 h
Outline: as §1

ZR-75-1 Tam1 [20] = assay: as above; details: 4-OH-tamoxifen in medium 1 µM; 72 h
Outline: as §1

ZR-75-1 Tam2 [21] = assay: as above; details: 4-OH-tamoxifen in medium 1 µM; 72 h
Outline: as §1

ZR-75-1 [22] = assay: as above; details: 72 h
Outline: as §1

Row | relative IC50 (BT-474 Tam1 [12]) | relative IC50 (BT-474 Tam2 [13]) | relative IC50 (BT-474 [14]; 4-OH-tamoxifen in medium 0 µM) | relative IC50 (BT-474 [14]; 4-OH-tamoxifen in medium 1 µM) | relative IC50 (MCF-7 Tam1 [15]) | relative IC50 (MCF-7 [16]; 4-OH-tamoxifen in medium 0 µM) | relative IC50 (MCF-7 [16]; 4-OH-tamoxifen in medium 1 µM) | relative IC50 (T-47D Tam1 [17]) | relative IC50 (T-47D Tam2 [18]) | relative IC50 (T-47D [19]; 4-OH-tamoxifen in medium 0 µM) | relative IC50 (T-47D [19]; 4-OH-tamoxifen in medium 1 µM) | SMILES | drug sensitivity score (BT-474 Tam1 [1]) | drug sensitivity score (BT-474 Tam2 [2]) | drug sensitivity score (BT-474 [3]; 4-OH-tamoxifen in medium 0 µM) | drug sensitivity score (BT-474 [3]; 4-OH-tamoxifen in medium 1 µM) | drug sensitivity score (MCF-7 Tam1 [4]) | drug sensitivity score (MCF-7 [5]; 4-OH-tamoxifen in medium 0 µM) | drug sensitivity score (MCF-7 [5]; 4-OH-tamoxifen in medium 1 µM) | drug sensitivity score (T-47D Tam1 [6]) | drug sensitivity score (T-47D Tam2 [7]) | drug sensitivity score (T-47D [8]; 4-OH-tamoxifen in medium 0 µM) | drug sensitivity score (T-47D [8]; 4-OH-tamoxifen in medium 1 µM) | drug sensitivity score (ZR-75-1 Tam1 [9]) | drug sensitivity score (ZR-75-1 Tam2 [10]) | drug sensitivity score (ZR-75-1 [11]; 4-OH-tamoxifen in medium 0 µM) | drug sensitivity score (ZR-75-1 [11]; 4-OH-tamoxifen in medium 1 µM) | relative IC50 (ZR-75-1 Tam1 [20]) | relative IC50 (ZR-75-1 Tam2 [21]) | relative IC50 (ZR-75-1 [22]; 4-OH-tamoxifen in medium 0 µM) | relative IC50 (ZR-75-1 [22]; 4-OH-tamoxifen in medium 1 µM)
1 | 1.25 µM | 0.494 µM | 0.563 µM | 0.518 µM | 1.91 µM | 2.79 µM | 0.943 µM | 0.235 µM | 1.34 µM | 2.95 µM | 3.59 µM | COC1=C2C[C@@H](C)C[C@H](OC)[C@H](O)[C@@H](C)/C=C(\C)[C@H](OC(N)=O)[C@@H](OC)/C=C\C=C(/C)C(=O)NC(=CC1=O)C2=O [Geldanamycin] | 8.85 | 12.9 | 9.69 | 10.8 | 4.81 | 5.35 | 9.55 | 14.8 | 6.85 | 4.34 | 3.67 | 7.66 | 6.52 | 6.31 | 9.2 | 1.12 µM | 1.44 µM | 1.34 µM | 1.07 µM
2 | 0.121 µM | 0.175 µM | 0.297 µM | 0.0766 µM | 0.194 µM | 0.0775 µM | 0.173 µM | 0.188 µM | 0.305 µM | 0.184 µM | 0.332 µM | COc1ccc(-c2cc3c(C)nc(N)nc3n([C@H]3CC[C@H](OCCO)CC3)c2=O)cn1 | 22.7 | 19.5 | 16.5 | 24.3 | 13.2 | 20.2 | 16.4 | 18.1 | 14.9 | 18.6 | 15.4 | 16.3 | 24 | 19 | 17 | 0.208 µM | 0.0525 µM | 0.102 µM | 0.102 µM
3 | 0.588 µM | 0.409 µM | 0.467 µM | 0.525 µM | 0.486 µM | 0.198 µM | 0.355 µM | 0.736 µM | 0.855 µM | 0.598 µM | 0.864 µM | CN[C@@H]1C[C@H]2O[C@@](C)([C@@H]1OC)n1c3ccccc3c3c4c(c5c6ccccc6n2c5c31)C(=O)N[C@H]4O [UCN-01] | 13.4 | 15.6 | 10.8 | 13.3 | 14.3 | 17.1 | 15.8 | 10.2 | 8.25 | 9.64 | 8.4 | 8.97 | 9.41 | 9.37 | 6.62 | 0.615 µM | 0.686 µM | 0.437 µM | 1.01 µM
4 | > 10 µM | > 10 µM | > 10 µM | > 10 µM | > 10 µM | > 10 µM | – | > 10 µM | > 10 µM | > 10 µM | > 10 µM | Nc1cccc2c1CN(C1CCC(=O)NC1=O)C2=O (stereo not drawn) [Lenalidomide] | 0 | 0 | 0 | 0 | 0 | 0 | 1.39 | 0 | 0 | 0 | 0 | 0 | 0 | 0 | 0 | > 10 µM | > 10 µM | > 10 µM | > 10 µM

More lines, now with the values behind:

Row | SMILES | relative IC50 (BT-474 Tam1 [12]) | relative IC50 (BT-474 Tam2 [13]) | relative IC50 (BT-474 [14]; 4-OH-tamoxifen in medium 0 µM) | relative IC50 (BT-474 [14]; 4-OH-tamoxifen in medium 1 µM) | relative IC50 (MCF-7 Tam1 [15]) | relative IC50 (MCF-7 [16]; 4-OH-tamoxifen in medium 0 µM) | relative IC50 (MCF-7 [16]; 4-OH-tamoxifen in medium 1 µM) | relative IC50 (T-47D Tam1 [17]) | relative IC50 (T-47D Tam2 [18]) | relative IC50 (T-47D [19]; 4-OH-tamoxifen in medium 0 µM) | relative IC50 (T-47D [19]; 4-OH-tamoxifen in medium 1 µM) | drug sensitivity score (BT-474 Tam1 [1]) | drug sensitivity score (BT-474 Tam2 [2]) | drug sensitivity score (BT-474 [3]; 4-OH-tamoxifen in medium 0 µM) | drug sensitivity score (BT-474 [3]; 4-OH-tamoxifen in medium 1 µM) | drug sensitivity score (MCF-7 Tam1 [4]) | drug sensitivity score (MCF-7 [5]; 4-OH-tamoxifen in medium 0 µM) | drug sensitivity score (MCF-7 [5]; 4-OH-tamoxifen in medium 1 µM) | drug sensitivity score (T-47D Tam1 [6]) | drug sensitivity score (T-47D Tam2 [7]) | drug sensitivity score (T-47D [8]; 4-OH-tamoxifen in medium 0 µM) | drug sensitivity score (T-47D [8]; 4-OH-tamoxifen in medium 1 µM) | drug sensitivity score (ZR-75-1 Tam1 [9]) | drug sensitivity score (ZR-75-1 Tam2 [10]) | drug sensitivity score (ZR-75-1 [11]; 4-OH-tamoxifen in medium 0 µM) | drug sensitivity score (ZR-75-1 [11]; 4-OH-tamoxifen in medium 1 µM) | relative IC50 (ZR-75-1 Tam1 [20]) | relative IC50 (ZR-75-1 Tam2 [21]) | relative IC50 (ZR-75-1 [22]; 4-OH-tamoxifen in medium 0 µM) | relative IC50 (ZR-75-1 [22]; 4-OH-tamoxifen in medium 1 µM)
5 | Nc1cc(C(F)(F)F)c(-c2cc(N3CCOCC3)nc(N3CCOCC3)n2)cn1 [Buparlisib (BKM-120)] | 1.35 µM | 1.4 µM | 1.73 µM | 0.87 µM | 1.23 µM | 0.561 µM | 0.622 µM | 0.687 µM | 1.09 µM | 0.931 µM | 1.52 µM | 9.32 | 8.94 | 5.66 | 11.1 | 4.41 | 10.8 | 9.9 | 9.5 | 8.09 | 9.27 | 7.4 | 7.01 | 7.44 | 6.24 | 5.88 | 0.71 µM | 0.963 µM | 0.99 µM | 0.931 µM
6 | O=P1(NCCCl)OCCCN1CCCl (stereo not drawn) [Ifosfamide] | > 10 µM | > 10 µM | > 10 µM | > 10 µM | > 10 µM | > 10 µM | – | > 10 µM | > 10 µM | > 10 µM | > 10 µM | 0 | 0 | 0 | 0 | 0 | 0 | 0.24 | 0 | 0 | 0 | 0 | 0 | 0 | 0 | 0 | > 10 µM | > 10 µM | > 10 µM | > 10 µM
7 | O=P(O)(NCCCl)NCCCl [Ifosfamide mustard] | > 10 µM | > 10 µM | > 10 µM | > 10 µM | > 10 µM | > 10 µM | > 10 µM | > 10 µM | > 10 µM | > 10 µM | > 10 µM | 0 | 0 | 0 | 0 | 0 | 0 | 0 | 0 | 0 | 0 | 0 | 0 | 0 | 0 | 0 | > 10 µM | > 10 µM | > 10 µM | > 10 µM
